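Five compound concentrations were applied to cells in 96-well plates for 48 hours; endpoints were derived by simple linear interpolation of the resulting dose-response curve. Abbreviation: GI50, concentration required for 50% inhibition of growth.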 Activity calls are given as the source filed them. Cut-off read from the data, not from the text of the source: active = GI50 up to about 1.1 µM and inactive = higher.
Columns and labels:
Experiment in all cases: NCI tumour cell line growth inhibition, 48 h
NCI-H226 = tested on: NCI-H226
NCI-H23 = tested on: NCI-H23
OVCAR-8 = tested on: OVCAR-8
OVCAR-5 = tested on: OVCAR-5
RXF 393 = tested on: RXF 393
ACHN = tested on: ACHN
KM12 = tested on: KM12
HOP-62 = tested on: HOP-62
UACC-62 = tested on: UACC-62
786-0 = tested on: 786-0
HOP-92 = tested on: HOP-92
LOX IMVI = tested on: LOX IMVI
MOLT-4 = tested on: MOLT-4
HCC 2998 = tested on: HCC 2998
TK-10 = tested on: TK-10
SK-MEL-28 = tested on: SK-MEL-28
SN12C = tested on: SN12C
M14 = tested on: M14
OVCAR-4 = tested on: OVCAR-4
Malme-3M = tested on: Malme-3M

| Structure (SMILES) | GI50 (NCI-H226) | GI50 (NCI-H23) | GI50 (OVCAR-8) | GI50 (OVCAR-5) | GI50 (RXF 393) | GI50 (ACHN) | GI50 (KM12) | GI50 (HOP-62) | GI50 (UACC-62) | GI50 (786-0) | GI50 (HOP-92) | GI50 (LOX IMVI) | GI50 (MOLT-4) | GI50 (HCC 2998) | GI50 (TK-10) | GI50 (SK-MEL-28) | GI50 (SN12C) | GI50 (M14) | GI50 (OVCAR-4) | GI50 (Malme-3M) |
| --- | --- | --- | --- | --- | --- | --- | --- | --- | --- | --- | --- | --- | --- | --- | --- | --- | --- | --- | --- | --- |
| CCC(=O)OC1CCn2c1nc1c2C(=O)C(C)=C(N2CC2)C1=O (stereo not given) | 0.111 µM (active) | < 0.0423 µM (active) | 0.0678 µM (active) | 0.0902 µM (active) | 0.0565 µM (active) | 0.0895 µM (active) | 0.0938 µM (active) | 0.0697 µM (active) | 0.0607 µM (active) | 0.0841 µM (active) | 1.53 µM (inactive) | 0.0771 µM (active) | 3.41 µM (inactive) | 0.0615 µM (active) | 0.0383 µM (active) | 0.0791 µM (active) | 0.0881 µM (active) | 0.0698 µM (active) | 0.126 µM (active) | 0.063 µM (active) |
| C[C@@]12CCC(=O)c3coc(c31)C(=O)c1cc3c(cc12)C(=O)C=CC3=O [HELENAQUINONE] | 29 µM (inactive) | 12.5 µM (inactive) | 16.3 µM (inactive) | 20 µM (inactive) | 21.2 µM (inactive) | 16.5 µM (inactive) | 24.7 µM (inactive) | > 100 µM (inactive) | 15.5 µM (inactive) | 17.2 µM (inactive) | 6.93 µM (inactive) | 8.59 µM (inactive) | 14.3 µM (inactive) | > 71.3 µM (inactive) | 31 µM (inactive) | 16.3 µM (inactive) | 16.6 µM (inactive) | 14.5 µM (inactive) | 18.2 µM (inactive) | 17.3 µM (inactive) |
| CCOC(=O)/C=C(\C(=O)OCC)n1ccc(=O)n(Cc2cn(COCCOC(C)=O)nn2)c1=O | 7.67 µM (inactive) | 17.7 µM (inactive) | 16.3 µM (inactive) | 23.4 µM (inactive) | 15.7 µM (inactive) | 7.05 µM (inactive) | 29.6 µM (inactive) | 98.6 µM (inactive) | 18.8 µM (inactive) | 15.7 µM (inactive) | 19 µM (inactive) | 17.9 µM (inactive) | 14.9 µM (inactive) | 16.6 µM (inactive) | 15.2 µM (inactive) | 18 µM (inactive) | 20.7 µM (inactive) | 39.8 µM (inactive) | 19.5 µM (inactive) | 15.2 µM (inactive) |
| O=c1ccc2[n+]([O-])c3ccc(O)cc3oc-2c1 [RESAZURIN] | 21.1 µM (inactive) | 2.56 µM (inactive) | 15 µM (inactive) | 23.6 µM (inactive) | 37 µM (inactive) | 5.65 µM (inactive) | 5.19 µM (inactive) | 18.7 µM (inactive) | 2.59 µM (inactive) | 12.5 µM (inactive) | > 75.2 µM (inactive) | 3.44 µM (inactive) | 13.7 µM (inactive) | 34.6 µM (inactive) | 36 µM (inactive) | 10.2 µM (inactive) | 18.2 µM (inactive) | 7.83 µM (inactive) | 23.4 µM (inactive) | 4.02 µM (inactive) |
| C=C(c1nc2ccc(Cl)cc2[nH]c1=O)C(O)c1ccc(C(O)C(=O)c2nc3ccc(Cl)cc3[nH]c2=O)cc1 (stereo not given) | > 100 µM (inactive) | > 100 µM (inactive) | > 100 µM (inactive) | > 100 µM (inactive) | > 100 µM (inactive) | 61.7 µM (inactive) | 60.1 µM (inactive) | > 100 µM (inactive) | > 79.6 µM (inactive) | > 100 µM (inactive) | > 100 µM (inactive) | > 83.6 µM (inactive) | 33.2 µM (inactive) | > 100 µM (inactive) | > 100 µM (inactive) | > 100 µM (inactive) | > 100 µM (inactive) | > 100 µM (inactive) | > 100 µM (inactive) | > 100 µM (inactive) |
| Cc1nn2c(nc1=O)sc1ccc3ccccc3c12 | > 100 µM (inactive) | > 100 µM (inactive) | > 100 µM (inactive) | > 100 µM (inactive) | > 100 µM (inactive) | > 100 µM (inactive) | > 100 µM (inactive) | > 100 µM (inactive) | > 100 µM (inactive) | > 100 µM (inactive) | > 100 µM (inactive) | > 100 µM (inactive) | > 100 µM (inactive) | > 100 µM (inactive) | > 100 µM (inactive) | > 100 µM (inactive) | > 100 µM (inactive) | > 100 µM (inactive) | > 100 µM (inactive) | > 100 µM (inactive) |
